We go through seven compounds from patent US20260201008A1, “SECRETIN-DERIVED GLP1R SELECTIVE AGONISTS” (GUBRA A/S, priority 2023, published 2026).

Data set [1] in a line: Fibril formation of crude library peptides (Thioflavin T). The data set is classed as physicochemical. Details: key: average ThT fluorescence emission at 480 nm (ex 450 nm), raw units. Conditions: Physical stability of peptides. In outline: (§1)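 Values reflect mean ThT emission (ex 450, em 480 nm) over 72 h at 40° C, read every 10 min after 5 min shaking at 700 rpm, plus a single initial absorbance at 600 nm for turbidity. Peptides were at 267 μM, pH 4.0 acetate or pH 7.0 phosphate (50 mM), with 4 μM ThT.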

Data set [2] in a line: Turbidity of crude library peptides (absorbance at 600 nm). Type of data set: physicochemical. The conditions noted are these: Physical stability of peptides. In outline: as §1
In another data set the target is GLP1R (Homo sapiens, UniProt P43220). Description: hGLP1R potency, cAMP accumulation in CHO-K1 cells stably overexpressing hGLP1R. Type of data set: cell-based. On the set-up: host or cells: CHO-K1. The conditions noted are these: for EC50: cAMP accumulation, CHO-K1 cells overexpressing hGLP1R, read-out: hGLP1R pEC50 (converted); for SCTR EC50/GLP1R EC50 ratio: selectivity for hGLP1R over hSCTR, cAMP accumulation in CHO-K1 cells. In outline: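 Cells were plated in DPBS with 0.05% casein and 0.5 mM IBMX, then stimulated for 30 min at room temperature with test compound. cAMP was read by TR-FRET after one hour. EC50 came from variable-slope sigmoid nonlinear regression; purified peptides ran as 11-point 3-fold series, n=2.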
Background: Changes in cAMP serve as a functional read-out for many G protein-coupled receptors.

In a further data set the target is SCTR (Homo sapiens, UniProt P47872). Description: hSCTR potency, cAMP accumulation in CHO-K1 cells stably overexpressing hSCTR. The data set is classed as cell-based. On the set-up: alternatively Euroscreen ES-712-AF; FAST-0161L; host or cells: CHO-K1. Conditions: for EC50: cAMP accumulation, CHO-K1 cells overexpressing hSCTR, read-out: hSCTR pEC50 (converted). The procedure, abridged: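 Division-arrested CHO-K1 cells stably expressing hSCTR were plated in DPBS with 0.05% casein and 0.5 mM IBMX, then stimulated with test peptide for 30 min at room temperature. cAMP was read by HTRF after one hour. EC50 came from variable-slope sigmoidal nonlinear regression.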

pEC50: −log10 of the molar value. Like-named read-outs stand apart in the source and are kept apart here. Numbered stars: 1 amine (or outer) side, 2 acyl side, 3 side chain; on linkers, the order of the positions; unused ones are H or OH. Square brackets hold non-standard residues; d marks the D form. Side chains are listed from the residue outwards. Peptide text beside a SMILES is read from it. * marks the point of attachment. C20 diacid = O=C(O)CCCCCCCCCCCCCCCCCCC(=O)*; γGlu = O=C(O)[C@H](CCC(=O)[*:2])N[*:1]; AEEA = NCCOCCOCC(=O)O; Aib = CC(C)(N)C(=O)O

Chain of SCTR (P47872 23-440): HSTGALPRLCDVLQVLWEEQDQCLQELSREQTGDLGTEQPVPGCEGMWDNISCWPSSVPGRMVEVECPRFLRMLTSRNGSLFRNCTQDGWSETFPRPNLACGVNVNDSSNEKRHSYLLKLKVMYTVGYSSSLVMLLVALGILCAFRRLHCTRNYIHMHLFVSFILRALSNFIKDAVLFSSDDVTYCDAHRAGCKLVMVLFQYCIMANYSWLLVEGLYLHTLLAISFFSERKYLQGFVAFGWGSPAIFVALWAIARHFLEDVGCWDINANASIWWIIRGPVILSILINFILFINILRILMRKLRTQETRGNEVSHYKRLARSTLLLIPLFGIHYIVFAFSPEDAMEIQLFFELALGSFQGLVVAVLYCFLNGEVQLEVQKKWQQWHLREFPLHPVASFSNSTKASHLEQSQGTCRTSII
Chain of GLP1R (P43220 24-463): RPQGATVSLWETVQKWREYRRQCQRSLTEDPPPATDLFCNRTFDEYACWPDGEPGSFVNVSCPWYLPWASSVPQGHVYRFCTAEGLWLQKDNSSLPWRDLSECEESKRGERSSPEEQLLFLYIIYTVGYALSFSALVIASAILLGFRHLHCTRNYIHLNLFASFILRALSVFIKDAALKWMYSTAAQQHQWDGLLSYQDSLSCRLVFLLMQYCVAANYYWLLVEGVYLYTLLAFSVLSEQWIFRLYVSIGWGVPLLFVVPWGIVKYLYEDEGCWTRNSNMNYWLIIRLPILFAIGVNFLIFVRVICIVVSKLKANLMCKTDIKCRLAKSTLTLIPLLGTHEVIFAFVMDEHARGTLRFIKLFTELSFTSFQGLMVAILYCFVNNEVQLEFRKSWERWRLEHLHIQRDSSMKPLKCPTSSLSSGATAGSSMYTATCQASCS

Turning to `CC(C)C[C@H](NC(=O)[C@H](Cc1ccccc1)NC(=O)[C@H](CCCNC(=N)N)NC(=O)[C@H](CCC(N)=O)NC(=O)[C@H](CO)NC(=O)[C@H](C)NC(=O)[C@H](C)NC(=O)[C@H](Cc1ccccc1)NC(=O)[C@H](CCC(=O)O)NC(=O)[C@H](CCCCNC(=O)COCCOCCNC(=O)COCCOCCNC(=O)CC[C@H](NC(=O)CCCCCCCCCCCCCCCCCCC(=O)O)C(=O)O)NC(=O)[C@H](CC(C)C)NC(=O)[C@H](Cc1ccccc1)NC(=O)[C@H](CO)NC(=O)[C@@H](NC(=O)[C@H](CC(=O)O)NC(=O)[C@H](CO)NC(=O)[C@@H](NC(=O)[C@H](Cc1ccccc1)NC(=O)[C@@H](NC(=O)CNC(=O)[C@H](CCC(=O)O)NC(=O)C(C)(C)NC(=O)[C@@H](N)Cc1c[nH]cn1)[C@@H](C)O)[C@@H](C)O)C(C)C)C(=O)N[C@@H](CCC(=O)O)C(=O)N[C@@H](Cc1c[nH]cn1)C(=O)N[C@@H](CC(C)C)C(=O)N[C@H](C(N)=O)C(C)C` [compound 91] (H-H[Aib]EGTFTSDVSFLK([AEEA-AEEA-γGlu-C20 diacid])EFAASQRFLEHLV-NH2), the Fibril formation in data set [1] stood at 260000. Further, in data set [2], the “Turbidity (pH 7)” value worked out at 0.42. Moreover, at GLP1R, the EC50 was 0.316 nM and the “SCTR EC50/GLP1R EC50 ratio” value was found to be 101438. Also, the EC50 on SCTR was 31600 nM.

With `CC(C)C[C@H](NC(=O)[C@H](Cc1ccccc1)NC(=O)[C@H](CCCNC(=N)N)NC(=O)[C@H](CCC(N)=O)NC(=O)[C@H](CO)NC(=O)[C@H](C)NC(=O)[C@H](C)NC(=O)[C@H](Cc1ccccc1)NC(=O)[C@H](CCC(=O)O)NC(=O)[C@H](CCCCNC(=O)COCCOCCNC(=O)COCCOCCNC(=O)CC[C@H](NC(=O)CCCCCCCCCCCCCCCCCCC(=O)O)C(=O)O)NC(=O)[C@H](CC(C)C)NC(=O)[C@@H](NC(=O)[C@H](CO)NC(=O)[C@@H](NC(=O)[C@H](CC(=O)O)NC(=O)[C@H](CO)NC(=O)[C@@H](NC(=O)[C@H](Cc1ccccc1)NC(=O)[C@@H](NC(=O)CNC(=O)[C@H](CCC(=O)O)NC(=O)C(C)(C)NC(=O)[C@@H](N)Cc1c[nH]cn1)[C@@H](C)O)[C@@H](C)O)C(C)C)C(C)C)C(=O)N[C@@H](CCC(=O)O)C(=O)N[C@@H](Cc1c[nH]cn1)C(=O)N[C@@H](CC(C)C)C(=O)N[C@H](C(N)=O)C(C)C` [compound 92] (H-H[Aib]EGTFTSDVSVLK([AEEA-AEEA-γGlu-C20 diacid])EFAASQRFLEHLV-NH2), the Fibril formation in data set [1] turned out to be 260000. Also, in data set [2], the “Turbidity (pH 7)” value is on record as 0.14. In addition, on GLP1R, the EC50 is 0.0794 nM and the “SCTR EC50/GLP1R EC50 ratio” value came out at 20773. Besides, the EC50 at SCTR was 1580 nM.

What is called pEC50 is the negative decadic logarithm of the EC50, by convention in mol/L. Compound `CC(C)C[C@H](NC(=O)[C@H](Cc1ccccc1)NC(=O)[C@H](CCCNC(=N)N)NC(=O)[C@H](CCC(N)=O)NC(=O)[C@@H](NC(=O)[C@H](C)NC(=O)[C@H](C)NC(=O)[C@@H](NC(=O)[C@H](CCC(=O)O)NC(=O)[C@H](CCCCNC(=O)COCCOCCNC(=O)COCCOCCNC(=O)CC[C@H](NC(=O)CCCCCCCCCCCCCCCCCCC(=O)O)C(=O)O)NC(=O)[C@H](CC(C)C)NC(=O)[C@@H](NC(=O)[C@H](CO)NC(=O)[C@@H](NC(=O)[C@H](CC(=O)O)NC(=O)[C@H](CO)NC(=O)[C@@H](NC(=O)[C@H](Cc1ccccc1)NC(=O)[C@@H](NC(=O)CNC(=O)[C@H](CCC(=O)O)NC(=O)C(C)(C)NC(=O)[C@@H](N)Cc1c[nH]cn1)[C@@H](C)O)[C@@H](C)O)C(C)C)[C@@H](C)O)[C@@H](C)O)[C@@H](C)O)C(=O)N[C@@H](CCC(=O)O)C(=O)N[C@@H](Cc1c[nH]cn1)C(=O)N[C@@H](CC(C)C)C(=O)N[C@H](C(N)=O)C(C)C` [compound 93] (H-H[Aib]EGTFTSDVSTLK([AEEA-AEEA-γGlu-C20 diacid])ETAATQRFLEHLV-NH2) returned a Fibril formation in data set [1] of 6728. For the same compound, in data set [2], the “Turbidity (pH 7)” value is reported as 0.08. Moreover, the pEC50 on GLP1R was 11.00; at SCTR, 6.50. Further, at GLP1R, the “SCTR EC50/GLP1R EC50 ratio” value worked out at 36771.

For `CC(C)C[C@H](NC(=O)[C@H](Cc1ccccc1)NC(=O)[C@H](CCCNC(=N)N)NC(=O)[C@H](CCC(N)=O)NC(=O)[C@H](CCC(N)=O)NC(=O)[C@H](C)NC(=O)[C@H](C)NC(=O)C(C)(C)NC(=O)[C@H](CCC(=O)O)NC(=O)[C@H](CCCCNC(=O)COCCOCCNC(=O)COCCOCCNC(=O)CC[C@H](NC(=O)CCCCCCCCCCCCCCCCCCC(=O)O)C(=O)O)NC(=O)[C@H](CC(C)C)NC(=O)[C@H](Cc1ccc(O)cc1)NC(=O)[C@H](CO)NC(=O)[C@@H](NC(=O)[C@H](CC(=O)O)NC(=O)[C@H](CO)NC(=O)[C@@H](NC(=O)[C@H](Cc1ccccc1)NC(=O)[C@@H](NC(=O)CNC(=O)[C@H](CCC(=O)O)NC(=O)C(C)(C)NC(=O)[C@@H](N)Cc1c[nH]cn1)[C@@H](C)O)[C@@H](C)O)C(C)C)C(=O)N[C@@H](CCC(=O)O)C(=O)N[C@@H](Cc1c[nH]cn1)C(=O)N[C@@H](CC(C)C)C(=O)N[C@H](C(N)=O)C(C)C` [compound 94] (H-H[Aib]EGTFTSDVSYLK([AEEA-AEEA-γGlu-C20 diacid])E[Aib]AAQQRFLEHLV-NH2), the Fibril formation in data set [1] stood at 10901. In data set [2], the “Turbidity (pH 7)” value turned out to be 0.08. On GLP1R, the EC50 was 0.01 nM and the “SCTR EC50/GLP1R EC50 ratio” value came out at 111764. Further, the EC50 at SCTR is 1000 nM.

Compound `CC(C)C[C@H](NC(=O)[C@H](Cc1ccccc1)NC(=O)[C@H](CCCNC(=N)N)NC(=O)[C@H](CCC(N)=O)NC(=O)[C@H](CCC(=O)O)NC(=O)[C@H](C)NC(=O)[C@H](C)NC(=O)[C@H](CCC(=O)O)NC(=O)[C@H](CCC(=O)O)NC(=O)[C@H](CCCCNC(=O)COCCOCCNC(=O)COCCOCCNC(=O)CC[C@H](NC(=O)CCCCCCCCCCCCCCCCCCC(=O)O)C(=O)O)NC(=O)[C@H](CC(C)C)NC(=O)[C@H](Cc1ccc(O)cc1)NC(=O)[C@H](CO)NC(=O)[C@@H](NC(=O)[C@H](CC(=O)O)NC(=O)[C@H](CO)NC(=O)[C@@H](NC(=O)[C@H](Cc1ccccc1)NC(=O)[C@@H](NC(=O)CNC(=O)[C@H](CCC(=O)O)NC(=O)C(C)(C)NC(=O)[C@@H](N)Cc1c[nH]cn1)[C@@H](C)O)[C@@H](C)O)C(C)C)C(=O)N[C@@H](CCC(=O)O)C(=O)N[C@@H](Cc1c[nH]cn1)C(=O)N[C@@H](CC(C)C)C(=O)N[C@H](C(N)=O)C(C)C` [compound 95] (H-H[Aib]EGTFTSDVSYLK([AEEA-AEEA-γGlu-C20 diacid])EEAAEQRFLEHLV-NH2) came in with a Fibril formation in data set [1] of 10160. In addition, the “Turbidity (pH 7)” value in data set [2] worked out at 0.08. The results for the EC50 at GLP1R and at SCTR were 0.02 nM and 15800 nM, respectively. Further, on GLP1R, the “SCTR EC50/GLP1R EC50 ratio” value is 840427.

For `CC(C)C[C@H](NC(=O)[C@H](Cc1ccccc1)NC(=O)[C@H](CCCNC(=N)N)NC(=O)[C@H](CCC(N)=O)NC(=O)[C@H](C)NC(=O)[C@H](C)NC(=O)[C@H](C)NC(=O)[C@H](CCC(=O)O)NC(=O)[C@H](CCC(=O)O)NC(=O)[C@H](CCCCNC(=O)COCCOCCNC(=O)COCCOCCNC(=O)CC[C@H](NC(=O)CCCCCCCCCCCCCCCCCCC(=O)O)C(=O)O)NC(=O)[C@H](CC(C)C)NC(=O)[C@@H](NC(=O)[C@H](CO)NC(=O)[C@@H](NC(=O)[C@H](CC(=O)O)NC(=O)[C@H](CO)NC(=O)[C@@H](NC(=O)[C@H](Cc1ccccc1)NC(=O)[C@@H](NC(=O)CNC(=O)[C@H](CCC(=O)O)NC(=O)C(C)(C)NC(=O)[C@@H](N)Cc1c[nH]cn1)[C@@H](C)O)[C@@H](C)O)C(C)C)[C@@H](C)O)C(=O)N[C@@H](CCC(=O)O)C(=O)N[C@@H](Cc1c[nH]cn1)C(=O)N[C@@H](CC(C)C)C(=O)N[C@H](C(N)=O)C(C)C` [compound 96] (H-H[Aib]EGTFTSDVSTLK([AEEA-AEEA-γGlu-C20 diacid])EEAAAQRFLEHLV-NH2), the Fibril formation in data set [1] was found to be 8019. In addition, the “Turbidity (pH 7)” value in data set [2] is on record as 0.09. Besides, on GLP1R, the EC50 is 0.0126 nM and the “SCTR EC50/GLP1R EC50 ratio” value was 31579. The EC50 at SCTR is 398 nM.

Compound `CC(C)C[C@H](NC(=O)[C@H](Cc1ccccc1)NC(=O)[C@H](CCCNC(=N)N)NC(=O)[C@H](CCC(N)=O)NC(=O)C(C)(C)NC(=O)[C@H](C)NC(=O)[C@H](C)NC(=O)[C@H](CCC(=O)O)NC(=O)[C@H](CCC(=O)O)NC(=O)[C@H](CCCCNC(=O)COCCOCCNC(=O)COCCOCCNC(=O)CC[C@H](NC(=O)CCCCCCCCCCCCCCCCCCC(=O)O)C(=O)O)NC(=O)[C@H](CC(C)C)NC(=O)[C@H](CCC(=O)O)NC(=O)[C@H](CO)NC(=O)[C@@H](NC(=O)[C@H](CC(=O)O)NC(=O)[C@H](CO)NC(=O)[C@@H](NC(=O)[C@H](Cc1ccccc1)NC(=O)[C@@H](NC(=O)CNC(=O)[C@H](CCC(=O)O)NC(=O)C(C)(C)NC(=O)[C@@H](N)Cc1c[nH]cn1)[C@@H](C)O)[C@@H](C)O)C(C)C)C(=O)N[C@@H](CCC(=O)O)C(=O)N[C@@H](Cc1c[nH]cn1)C(=O)N[C@@H](CC(C)C)C(=O)N[C@H](C(N)=O)C(C)C` [compound 97] (H-H[Aib]EGTFTSDVSELK([AEEA-AEEA-γGlu-C20 diacid])EEAA[Aib]QRFLEHLV-NH2) displayed a Fibril formation in data set [1] of 10277. The “Turbidity (pH 7)” value in data set [2] turned out to be 0.09. In addition, the EC50 at GLP1R was 0.01 nM; at SCTR, 1580 nM. For the same compound, at GLP1R, the “SCTR EC50/GLP1R EC50 ratio” value stood at 145949.
